Read-outs that look alike come from different tables or passages of the source.
Legend:
hNav1.7 = target: T1, hNav1.7 (Homo sapiens, UniProt Q15858); experiment: Tritiated compound binding (LBA) to membranes from cells expressing hNav1.7 and the β1 subunit, competitive binding; settings: competitive binding vs 100 pM [3H]compound, 18 h, room temperature, membranes with hNav1.7 and β1 subunit
T1 construct: expressed in transfected cells
Procedure, shortened: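 Membranes from cells expressing hNav1.7 with β1 were incubated 18 h at room temperature with 100 pM tritiated formula (I) compound and increasing test compound, in 100 mM NaCl, 20 mM Tris HCl pH 7.4, 0.01% BSA.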

human NaV1.7 = target: T2, human NaV1.7 (Homo sapiens, UniProt Q15858); experiment: Patch voltage clamp electrophysiology assay (EP), NaV1.7; type: cell-based; settings: HEK-293 cells stably expressing NaV1.7 with β1 subunit; whole-cell patch clamp, membrane potential −60 mV (inactivated state)
T2 construct: permanently transfected with an expression vector containing the full-length cDNA coding for the desired human sodium channel α-subunit; expressed in transfected cells; host or cells: HEK-293
T2 sequence (Q15858 1-1977 isoform Q15858-3): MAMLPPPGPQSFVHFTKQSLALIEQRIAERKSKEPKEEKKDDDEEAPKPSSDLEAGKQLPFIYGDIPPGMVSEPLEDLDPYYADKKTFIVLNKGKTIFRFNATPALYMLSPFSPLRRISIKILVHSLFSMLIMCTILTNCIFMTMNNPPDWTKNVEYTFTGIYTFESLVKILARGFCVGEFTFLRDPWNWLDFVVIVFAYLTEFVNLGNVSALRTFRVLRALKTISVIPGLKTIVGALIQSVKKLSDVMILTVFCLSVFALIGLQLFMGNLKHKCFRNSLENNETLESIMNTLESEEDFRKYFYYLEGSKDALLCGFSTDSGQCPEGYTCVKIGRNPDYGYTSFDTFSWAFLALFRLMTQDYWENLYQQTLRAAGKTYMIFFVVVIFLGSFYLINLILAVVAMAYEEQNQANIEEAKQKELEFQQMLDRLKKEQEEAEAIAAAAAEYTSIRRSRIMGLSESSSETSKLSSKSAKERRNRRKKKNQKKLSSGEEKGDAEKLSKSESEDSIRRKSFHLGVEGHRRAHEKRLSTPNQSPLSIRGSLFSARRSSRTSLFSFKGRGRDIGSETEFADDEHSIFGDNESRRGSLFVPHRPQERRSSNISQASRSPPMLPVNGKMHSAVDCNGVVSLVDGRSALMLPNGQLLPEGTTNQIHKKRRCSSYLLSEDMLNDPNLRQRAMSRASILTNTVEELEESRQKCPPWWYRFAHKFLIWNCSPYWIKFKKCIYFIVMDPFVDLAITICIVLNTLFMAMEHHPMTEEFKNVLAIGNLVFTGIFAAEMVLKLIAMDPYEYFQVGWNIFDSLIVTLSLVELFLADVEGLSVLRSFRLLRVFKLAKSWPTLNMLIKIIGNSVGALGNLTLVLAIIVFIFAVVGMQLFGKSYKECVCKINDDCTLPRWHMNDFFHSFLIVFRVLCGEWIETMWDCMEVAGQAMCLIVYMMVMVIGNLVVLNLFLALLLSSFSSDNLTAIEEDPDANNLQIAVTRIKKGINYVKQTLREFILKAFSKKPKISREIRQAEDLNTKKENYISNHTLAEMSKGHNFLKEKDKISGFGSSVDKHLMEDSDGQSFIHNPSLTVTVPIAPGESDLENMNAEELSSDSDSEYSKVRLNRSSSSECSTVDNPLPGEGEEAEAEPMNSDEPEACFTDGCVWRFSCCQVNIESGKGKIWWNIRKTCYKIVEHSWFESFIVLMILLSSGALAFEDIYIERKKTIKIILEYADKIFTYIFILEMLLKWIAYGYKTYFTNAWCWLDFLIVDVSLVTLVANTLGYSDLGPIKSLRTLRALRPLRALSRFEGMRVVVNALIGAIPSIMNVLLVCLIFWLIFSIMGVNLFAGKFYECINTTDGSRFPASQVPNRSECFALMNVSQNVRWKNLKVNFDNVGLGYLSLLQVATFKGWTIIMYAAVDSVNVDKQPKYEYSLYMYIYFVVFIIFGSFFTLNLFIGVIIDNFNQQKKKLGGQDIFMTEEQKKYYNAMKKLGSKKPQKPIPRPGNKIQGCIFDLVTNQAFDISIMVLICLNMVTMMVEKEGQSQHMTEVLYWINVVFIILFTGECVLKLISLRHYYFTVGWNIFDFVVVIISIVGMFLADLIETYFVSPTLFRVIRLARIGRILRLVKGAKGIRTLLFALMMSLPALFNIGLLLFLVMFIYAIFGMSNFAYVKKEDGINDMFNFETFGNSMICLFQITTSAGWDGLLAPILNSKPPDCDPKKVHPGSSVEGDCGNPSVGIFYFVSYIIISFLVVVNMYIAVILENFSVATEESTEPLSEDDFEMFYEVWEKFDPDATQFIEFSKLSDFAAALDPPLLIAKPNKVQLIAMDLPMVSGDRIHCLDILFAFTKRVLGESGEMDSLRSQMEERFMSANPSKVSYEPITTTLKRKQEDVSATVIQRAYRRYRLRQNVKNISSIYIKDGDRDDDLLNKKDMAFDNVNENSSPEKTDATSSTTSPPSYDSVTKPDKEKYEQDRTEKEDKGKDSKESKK
T2 sequence (Q07699 19-218 partner): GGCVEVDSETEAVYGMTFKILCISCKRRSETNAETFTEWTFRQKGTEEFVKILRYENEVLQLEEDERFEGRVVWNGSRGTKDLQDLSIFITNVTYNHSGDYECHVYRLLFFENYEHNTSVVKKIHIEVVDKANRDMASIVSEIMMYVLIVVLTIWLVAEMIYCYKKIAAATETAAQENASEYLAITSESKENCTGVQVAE
Procedure, shortened: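 HEK-293 cells stably expressing human α-subunit with β1; whole-cell patch clamp (PatchXpress or manual), ambient temperature, pH 7.4 external NaCl, CsF internal. Held at −60 mV (full inactivation), stepped to −150 mV for 20 ms, then test pulse; percent current decrease after compound wash-on taken as block.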

NaV1.5 = target: T3, NaV1.5 (Homo sapiens, UniProt Q14524); experiment: Patch voltage clamp electrophysiology assay (EP), NaV1.5; type: cell-based; settings: HEK-293 cells stably expressing NaV1.5 with β1 subunit, whole-cell patch clamp, membrane potential −60 mV (inactivated state)
T3 construct: permanently transfected with an expression vector containing the full-length cDNA coding for the desired human sodium channel α-subunit; expressed in transfected cells; host or cells: HEK-293
T3 sequence (Q14524 whole entry): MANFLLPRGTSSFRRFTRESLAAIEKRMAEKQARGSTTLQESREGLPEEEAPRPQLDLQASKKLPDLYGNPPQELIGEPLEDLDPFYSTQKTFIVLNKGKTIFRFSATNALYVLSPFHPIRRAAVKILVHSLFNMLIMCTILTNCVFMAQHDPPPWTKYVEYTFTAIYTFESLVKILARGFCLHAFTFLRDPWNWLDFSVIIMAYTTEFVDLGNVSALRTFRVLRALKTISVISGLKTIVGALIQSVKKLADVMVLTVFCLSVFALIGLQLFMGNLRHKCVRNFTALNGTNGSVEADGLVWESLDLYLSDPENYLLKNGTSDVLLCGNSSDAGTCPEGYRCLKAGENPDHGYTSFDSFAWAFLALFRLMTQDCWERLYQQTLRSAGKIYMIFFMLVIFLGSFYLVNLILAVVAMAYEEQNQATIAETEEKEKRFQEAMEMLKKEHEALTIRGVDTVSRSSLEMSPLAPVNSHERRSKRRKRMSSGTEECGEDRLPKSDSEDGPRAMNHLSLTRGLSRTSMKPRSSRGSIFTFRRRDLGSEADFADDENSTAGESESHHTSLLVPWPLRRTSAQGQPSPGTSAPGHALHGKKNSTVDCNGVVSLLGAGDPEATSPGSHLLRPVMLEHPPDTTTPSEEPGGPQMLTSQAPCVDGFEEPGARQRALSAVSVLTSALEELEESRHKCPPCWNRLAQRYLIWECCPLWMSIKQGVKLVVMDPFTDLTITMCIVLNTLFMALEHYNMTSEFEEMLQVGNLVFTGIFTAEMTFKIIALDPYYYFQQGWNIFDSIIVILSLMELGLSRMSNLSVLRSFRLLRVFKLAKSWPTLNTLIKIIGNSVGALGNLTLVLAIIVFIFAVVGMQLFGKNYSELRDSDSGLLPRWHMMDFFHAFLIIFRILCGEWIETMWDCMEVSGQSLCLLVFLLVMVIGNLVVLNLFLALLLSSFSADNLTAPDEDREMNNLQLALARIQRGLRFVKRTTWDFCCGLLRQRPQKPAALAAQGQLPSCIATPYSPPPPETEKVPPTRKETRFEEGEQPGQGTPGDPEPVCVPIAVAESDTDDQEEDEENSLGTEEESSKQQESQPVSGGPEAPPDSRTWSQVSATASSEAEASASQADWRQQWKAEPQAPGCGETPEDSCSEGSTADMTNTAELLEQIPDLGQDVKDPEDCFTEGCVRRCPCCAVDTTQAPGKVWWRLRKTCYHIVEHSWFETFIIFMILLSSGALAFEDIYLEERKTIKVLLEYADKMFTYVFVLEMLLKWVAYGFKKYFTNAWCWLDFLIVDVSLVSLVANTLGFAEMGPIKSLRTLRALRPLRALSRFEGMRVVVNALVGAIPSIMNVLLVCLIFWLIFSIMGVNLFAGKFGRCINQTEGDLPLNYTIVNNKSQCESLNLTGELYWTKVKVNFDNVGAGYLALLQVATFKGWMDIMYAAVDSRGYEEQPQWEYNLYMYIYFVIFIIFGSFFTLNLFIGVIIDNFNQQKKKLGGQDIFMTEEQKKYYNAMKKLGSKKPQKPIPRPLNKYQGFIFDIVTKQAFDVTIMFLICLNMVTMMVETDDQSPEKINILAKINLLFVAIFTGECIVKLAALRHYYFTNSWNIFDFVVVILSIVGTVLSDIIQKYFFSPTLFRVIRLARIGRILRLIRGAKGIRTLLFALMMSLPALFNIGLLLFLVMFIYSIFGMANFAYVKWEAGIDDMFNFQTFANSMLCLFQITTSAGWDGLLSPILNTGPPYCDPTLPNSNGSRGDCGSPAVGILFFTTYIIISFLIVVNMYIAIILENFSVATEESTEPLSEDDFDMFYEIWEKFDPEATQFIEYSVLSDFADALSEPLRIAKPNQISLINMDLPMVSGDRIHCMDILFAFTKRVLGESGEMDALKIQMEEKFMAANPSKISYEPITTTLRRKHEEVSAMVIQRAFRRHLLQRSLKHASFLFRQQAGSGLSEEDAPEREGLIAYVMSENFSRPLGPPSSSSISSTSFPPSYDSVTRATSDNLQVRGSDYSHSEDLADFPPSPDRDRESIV
Description: The following patch voltage clamp electrophysiology studies were performed on representative compounds of the invention using human embryonic kidney cells (HEK), permanently transfected with an expression vector containing the full-length cDNA coding for the desired human sodium channel α-subunit, grown in culture media containing 10% FBS, 1% PSG, and 0.5 mg/mL G418 at 37° C. with 5% CO2. […] NaV1.7 and NaV1.5 cDNAs (NM_002977 and AC137587; SCN5A, respectively) were stably expressed in HEK-293 cells. The β1 subunit was coexpressed in both the NaV1.7 and NaV1.5 cell lines.
Sodium currents were measured using the patch clamp technique in the whole-cell configuration using either a PatchXpress automated voltage clamp or manually using an Axopatch 200B (Axon Instruments) or Model 2400 (A-M systems) amplifier. The manual voltage clamp protocol was as follows: Borosilicate glass micropipettes were fire-polished to a tip diameter yielding a resistance of 2-4 Mohms in the working solutions. The pipette was filled with a solution comprised of: 5 mM NaCl, 10 mM CsCl, 120 mM CsF, 0.1 mM CaCl2, 2 mM MgCl2, 10 mM HEPES, 10 mM EGTA; and adjusted to pH 7.2 with CsOH. The external solution had the following composition: 140 mM NaCl, 5 mM KCl, 2 mM CaCl2, 1 mM MgCl2, 10 mM HEPES; and adjusted to pH 7.4 with NaOH. In some studies, the external sodium was reduced by equimolar replacement with choline. Osmolarity in the CsF internal and NaCl external solutions was adjusted to 300 mOsm/kg and 310 mOsm/kg with glucose, respectively. All recordings were performed at ambient temperature in a bath chamber with a volume of 150 μL. Control sodium currents were measured in 0.5% DMSO. Controls and representative compounds of the invention were applied to the recording chamber through a 4-pinch or 8-pinch valve bath perfusion system manufactured by ALA Scientific Instruments.
Series resistance compensation was applied (60-80%). […] All statistics in this study are given as mean±SD.
The membrane potential was maintained at a voltage where inactivation of the channel is complete (which was −60 mV for both NaV1.7 and NaV1.5). The voltage is then stepped back to a very negative (Vhold=[…]) voltage for 20 ms and then a test pulse is applied to quantify the compound block. […] The percent decrease in sodium current following wash-on of compound was taken as the percent block of sodium channels.

[1] = human, HEK-293 cells stably expressing human NaV1.5 with β1 subunit, pH 7.4

T1 sequence (Q15858 1-1977 isoform Q15858-3): as the sequence (Q15858 1-1977 isoform Q15858-3) above
T1 sequence (Q07699 19-218 partner): as the sequence (Q07699 19-218 partner) above

With C[C@@]1(C(=O)O)CCCN1C(=O)c1cc(C2CC2)c(OCC23CC4CC(CC(C4)C2)C3)cc1F [Example 51, (S)-1-(4-((adamantan-1-yl)methoxy)-5-cyclopropyl-2-fluorobenzoyl)-2-methylpyrrolidine-2-carboxylic acid] the IC50 (hNav1.7) was 0.1 µM, the IC50 (human NaV1.7) was 0.92 µM and the IC50 (NaV1.5; read-out: Nav1.5) was 14 µM.

Work on CC(C)(C)[C@H](NC(=O)c1cc(C2CC2)c(OCC23CC4CC(CC(C4)C2)C3)cc1F)C(=O)O [Example 52, (S)-2-(4-(adamantan-1-ylmethoxy)-5-cyclopropyl-2-fluorobenzamido)-3,3-dimethylbutanoic acid] yielded an IC50 (hNav1.7) of 0.098 µM, an IC50 (human NaV1.7) of 1.4 µM and an IC50 (NaV1.5; read-out: Nav1.5) of 7.5 µM.

O=C(N[C@H](C(=O)O)C1CC1)c1cc(C2CC2)c(OCC2CCN(C(c3cc(Cl)cc(Cl)c3)C(F)(F)F)CC2)cc1F (stereo partly drawn) [Example 53, (2S)-2-cyclopropyl-2-(5-cyclopropyl-4-((1-(1-(3,5-dichlorophenyl)-2,2,2-trifluoroethyl)piperidin-4-yl)methoxy)-2-fluorobenzamido)acetic acid] was tested, and the IC50 (hNav1.7) was 0.017 µM, the IC50 (human NaV1.7) was 2 µM and the IC50 (NaV1.5; read-out: Nav1.5) was 14 µM.

With O=C(c1cc(C2CC2)c(OCC23CC4CC(CC(C4)C2)C3)cc1F)N1CCC[C@H]1c1nnn[nH]1 [Example 54, ((S)-2-(1H-tetrazol-5-yl)pyrrolidin-1-yl)(4-(adamantan-1-ylmethoxy)-5-cyclopropyl-2-fluorophenyl)methanone] the IC50 (hNav1.7) was 0.058 µM, the IC50 (human NaV1.7) was 0.62 µM and the IC50 (NaV1.5; read-out: Nav1.5) was 9.7 µM.

CC1(COc2cc(F)c(C(=O)N3CCC[C@H]3C(=O)O)cc2C2CC2)CCC2(CC1)CC2(F)F (stereo partly drawn) [Example 55, (5-cyclopropyl-4-((1,1-difluoro-6-methylspiro[2.5]octan-6-yl)methoxy)-2-fluorobenzoyl)-L-proline] was tested, and the IC50 (hNav1.7) was 0.25 µM, the IC50 (human NaV1.7) was 0.79 µM and the IC50 (NaV1.5; read-out: Nav1.5) was 29 µM.

O=C(O)[C@@H]1CCCN1C(=O)c1cc(C2CC2)c(OCC23CCC(F)(CC2)CC3)cc1F [Example 56, (5-cyclopropyl-2-fluoro-4-((4-fluorobicyclo[2.2.2]octan-1-yl)methoxy)benzoyl)-L-proline] was tested, and the IC50 (hNav1.7) was 0.41 µM, the IC50 (human NaV1.7) was 1.8 µM and the IC50 (NaV1.5; [1]) was at least 30 µM.

In the case of C[C@@H](O)[C@H](NC(=O)c1cc(C2CC2)c(OCC23CC4CC(CC(C4)C2)C3)cc1F)C(=O)O [Example 57], the IC50 (hNav1.7) is reported as 0.43 µM, the IC50 (human NaV1.7) is reported as 2.1 µM and the IC50 (NaV1.5; read-out: Nav1.5) is reported as 23 µM.

Molecule CC1(COc2cc(F)c(C(=O)N3CCC[C@H]3C(=O)O)cc2C2CC2)CCC2(CC1)CC2 [Example 58, (5-cyclopropyl-2-fluoro-4-((6-methylspiro[2.5]octan-6-yl)-methoxy)benzoyl)-L-proline] has an IC50 (hNav1.7) of 0.083 µM, an IC50 (human NaV1.7) of 0.63 µM and an IC50 (NaV1.5; read-out: Nav1.5) of 21 µM.

For CO[C@@H]1C[C@@H](C(=O)O)N(C(=O)c2cc(C3CC3)c(OCC34CC5CC(CC(C5)C3)C4)cc2F)C1 [Example 59, (2S,4R)-1-(4-((adamantan-1-yl)methoxy)-5-cyclopropyl-2-fluorobenzoyl)-4-methoxypyrrolidine-2-carboxylic acid], the IC50 (hNav1.7) was 0.034 µM, the IC50 (human NaV1.7) was 0.55 µM and the IC50 (NaV1.5; read-out: Nav1.5) was 26 µM.

In the case of O=C(O)[C@@H]1C[C@H]2C[C@H]2N1C(=O)c1cc(C2CC2)c(OCC23CC4CC(CC(C4)C2)C3)cc1F [Example 60, (1R, 3S, 5R)-2-(4-((adamantan-1-yl)methoxy)-5-cyclopropyl-2-fluorobenzoyl)-2-azabicyclo[3.1.0]hexane-3-carboxylic acid], the IC50 (hNav1.7) is reported as 0.34 µM, the IC50 (human NaV1.7) is reported as 1.9 µM and the IC50 (NaV1.5; read-out: Nav1.5) is reported as 13 µM.

For O=C(O)[C@@H]1[C@H](O)CCN1C(=O)c1cc(C2CC2)c(OCC23CC4CC(CC(C4)C2)C3)cc1F [Example 62, (2S, 3R)-1-(4-((adamantan-1-yl)methoxy)-5-cyclopropyl-2-fluorobenzoyl)-3-hydroxypyrrolidine-2-carboxylic acid], the IC50 (hNav1.7) was 0.16 µM, the IC50 (human NaV1.7) was 1.1 µM and the IC50 (NaV1.5; read-out: Nav1.5) was 28 µM.

With O=C(O)[C@@H]1[C@H](F)CCN1C(=O)c1cc(C2CC2)c(OCC23CC4CC(CC(C4)C2)C3)cc1F [Example 63, (2R, 3R)-1-(4-((adamantan-1-yl)methoxy)-5-cyclopropyl-2-fluorobenzoyl)-3-fluoropyrrolidine-2-carboxylic acid] the IC50 (hNav1.7) was 0.17 µM, the IC50 (human NaV1.7) was 0.98 µM and the IC50 (NaV1.5; read-out: Nav1.5) was 18 µM.

In the case of O=C(O)[C@@H]1[C@@H](F)CCN1C(=O)c1cc(C2CC2)c(OCC23CC4CC(CC(C4)C2)C3)cc1F [Example 64, (2R,3S)-1-(4-((adamantan-1-yl)methoxy)-5-cyclopropyl-2-fluorobenzoyl)-3-fluoropyrrolidine-2-carboxylic acid], the IC50 (hNav1.7) is reported as 0.06 µM, the IC50 (human NaV1.7) is reported as 0.79 µM and the IC50 (NaV1.5; read-out: Nav1.5) is reported as 8.5 µM.

O=C(O)C1CCN(C(=O)c2cc(C3CC3)c(OCC34CC5CC(CC(C5)C3)C4)cc2F)C1 (stereo not drawn) [Example 65, 1-(4-(adamantan-1-ylmethoxy)-5-cyclopropyl-2-fluorobenzoyl)pyrrolidine-3-carboxylic acid] showed an IC50 (hNav1.7) of at least 10 µM, an IC50 (human NaV1.7) of 5.3 µM and an IC50 (NaV1.5; read-out: Nav1.5) of 23 µM.

Work on CC(C)[C@H](NC(=O)c1cc(C2CC2)c(OCC23CC4CC(CC(C4)C2)C3)cc1F)C(=O)O [Example 66, (S)-2-(4-(adamantan-1-ylmethoxy)-5-cyclopropyl-2-fluorobenzamido)-3-methylbutanoic acid] yielded an IC50 (hNav1.7) of 0.07 µM, an IC50 (human NaV1.7) of 0.8 µM and an IC50 (NaV1.5; read-out: Nav1.5) of 8.1 µM.

In the case of CC(C)[C@@H](C(=O)O)N(C)C(=O)c1cc(C2CC2)c(OCC23CC4CC(CC(C4)C2)C3)cc1F [Example 67, N-(4-(adamantan-1-ylmethoxy)-5-cyclopropyl-2-fluorobenzoyl)-N-methyl-L-valine], the IC50 (hNav1.7) is reported as 1 µM, the IC50 (human NaV1.7) is reported as 3 µM and the IC50 (NaV1.5; read-out: Nav1.5) is reported as 7.5 µM.

Molecule CC1(C)CCC(COc2cc(F)c(C(=O)N3CCC[C@H]3C(=O)O)cc2C2CC2)CC1 [Example 68, (S)-1-(5-cyclopropyl-4-((4,4-dimethylcyclohexyl)methoxy)-2-fluorobenzoyl)pyrrolidine-2-carboxylic acid] has an IC50 (hNav1.7) of 0.1 µM, an IC50 (human NaV1.7) of 0.52 µM and an IC50 (NaV1.5; read-out: Nav1.5) of 19 µM.

With O=C(O)[C@@H]1CCCN1C(=O)c1cc(C2CC2)c(OCC23CCCCC2C3)cc1F (stereo partly drawn) [Example 69, (4-(bicyclo[4.1.0]heptan-1-ylmethoxy)-5-cyclopropyl-2-fluorobenzoyl)-L-proline] the IC50 (hNav1.7) was 0.17 µM, the IC50 (human NaV1.7) was 0.52 µM and the IC50 (NaV1.5; [1]) was at least 30 µM.

With O=C(O)[C@@H]1CCCN1C(=O)c1cc(C2CC2)c(OC2C3CC4CC(C3)CC2C4)cc1F (stereo partly drawn) [Example 70, (S)-1-(4-(adamantan-2-yloxy)-5-cyclopropyl-2-fluorobenzoyl)pyrrolidine-2-carboxylic acid] the IC50 (hNav1.7) was 0.31 µM, the IC50 (human NaV1.7) was 1.6 µM and the IC50 (NaV1.5; [1]) was at least 30 µM.

O=C(O)[C@@H]1CCCN1C(=O)c1cc(F)c(OCC23CC4CC(CC(C4)C2)C3)cc1F [Example 71, (4-(adamantan-1-ylmethoxy)-2,5-difluorobenzoyl)-L-proline] gave an IC50 (hNav1.7) of 6.1 µM, an IC50 (human NaV1.7) of 11 µM and an IC50 (NaV1.5; [1]) of at least 30 µM.

Molecule O=C(O)C1COCCN1C(=O)c1cc(C2CC2)c(OCC23CC4CC(CC(C4)C2)C3)cc1F (stereo not drawn) [Example 72, 4-(4-(adamantan-1-ylmethoxy)-5-cyclopropyl-2-fluorobenzoyl)morpholine-3-carboxylic acid] has an IC50 (hNav1.7) of 3.6 µM, an IC50 (human NaV1.7) of 5.6 µM and an IC50 (NaV1.5; read-out: Nav1.5) of 24 µM.

Work on O=C(N[C@H](C(=O)O)C1CC1)c1cc(C2CC2)c(OCC23CC4CC(CC(C4)C2)C3)cc1F [Example 74, (S)-2-(4-(adamantan-1-ylmethoxy)-5-cyclopropyl-2-fluorobenzamido)-2-cyclopropylacetic acid] yielded an IC50 (hNav1.7) of 0.024 µM, an IC50 (human NaV1.7) of 0.7 µM and an IC50 (NaV1.5; read-out: Nav1.5) of 7.5 µM.

Reference: US10125098B2, “Therapeutic compounds and methods of use thereof” (GENENTECH, INC., priority 2014, dated 2018)
